How the values were obtained:
Test in all cases: Caspase 3 activity assay (colorimetric, DEVD-pNA)
Format in all cases: cell-based, human
caspase-3 in CoN cells = settings: compound 50 μM, control 1% ethanol
From the text: (§1) Depletion of mitochondrial membrane potential leads to the release of apoptogenic factors, such as cytochrome c in the apoptotic cascade, and activation of caspases. Then we investigated the effects of our compounds on caspase activity. We focused on caspase-3, which is a main executor of apoptosis playing a central role in its biological processing. We analyzed the effect of treatment with the compound 1, 8 and 12 on caspase-3 activation in normal and cancer cells. […] Compound 1 increased the activity of caspase-3 by 3.4 ± 0.1, 1.4 ± 0.1 and 2.8 ± 0.1 times versus control cells in MCF-7 (black), CoN (white) and PC-3 (gray) cells, respectively. Compound 8 increased the activity of caspase 3 by 2.4 ± 0.1, 1.3 ± 0.2 and 2.7 ± 0.1 times versus control cells in MCF-7 (black), CoN (white) and PC-3 (gray) cells, respectively.
(§2) Caspase activity was measured using a colorimetric assay. Briefly, the cells exposed to compounds were collected by centrifugation at 1000 rpm and lysed with lysis buffer (1% Triton X-100, 0.32 M sucrose, 5 mM EDTA, 10 mM Tris–HCl, pH 8.0, 2 mM dithiothreitol, 1 mM PMSF, […] aprotinin, 1 mg/mL leupeptin). Thereafter, the lysates were transferred to wells in a 96-well microplate and were incubated with DEVD-pNA (final concentration 200 μM) specific for caspase-3/7, at 37 °C for 1 h. The intensity of the developed color was read at 405 nm in a microplate reader (SpectraMax, Winooski, VT, USA). The results are expressed as percentages of the control level.

caspase-3 in MCF-7 cells = settings: MCF-7, compound 50 μM; control 1% ethanol
From the text: as §1, §2

caspase-3 in PC-3 cells = settings: PC-3, compound 50 μM; control 1% ethanol
From the text: as §1, §2

CC1(C)CCC[C@]2(C)[C@@H](C=O)C(C=O)=CC[C@@H]12 [Compound 1, polygodial]
increase of caspase-3 activity (caspase-3 in CoN cells): 1.4 ± 0.1 times versus control cells
increase of caspase-3 activity (caspase-3 in MCF-7 cells): 3.4 ± 0.1 times versus control cells
increase of caspase-3 activity (caspase-3 in PC-3 cells): 2.8 ± 0.1 times versus control cells

Reference: article PMC6270921, “Study on the Cytotoxic Activity of Drimane Sesquiterpenes and Nordrimane Compounds against Cancer Cell Lines” (Molecules, 2014)
